Source: patent US11230526B1, “Cylcoalkenyl derivatives useful as agonists of the GPR120 and/or GPR40 receptors” (Janssen Pharmaceutica NV, priority 2018, dated 2022)

How the values were obtained:
C57bl/6J Mice = assay: GPR120 C57bl6 mouse IPGTT; format: in vivo; details: male C57bl/6J mice, dosed 30 minutes prior to glucose (IP) 1.5 g/kg
Method: Male, C57bl/6J Mice were ordered in at 8 weeks of age from Jackson Labs. Individual mice weighed anywhere in the range of 25-30 grams on study day. The mice were fasted, with removal of food occurring at 7 am on the morning of the study. Animals were moved into the room at 10:00 am, to give them time to acclimate. Glucose (insulin syringes) was drawn up either the night before or the morning of the study. Glucose was dosed (IP) at 1.5 g/kg at 7.5 ml/kg (20% glucose straight TEKNOVA, 250 ml sterile bottle w/catalogue number G0525). Test compounds were kept spinning and were only drawn into the syringes prior to study commencement. Animals were bled via tail snip to determine basal glucose levels prior to dosing of treatments. An Ascensia BREEZE Blood Glucose Monitoring System by Bayer (using unique 10-test disks) was used for determining glucose levels. The bleeds started at approximately 12:45 pm and dosing started, at 1-minute intervals, immediately after. All groups were dosed 30 minutes prior to glucose administration at a dose volume of 10 ml/kg (the dose volume was calculated separately for each individual animal). Thirty minutes after the first dose animals were bled again for a second baseline, or T=0, and immediately dosed with glucose via an i.p. injection. The exact dose volume for glucose was also calculated separately for each individual animal. Glucose measurements were taken at −30 min prior to compound dose, at t=0 (immediately prior to glucose dose), and at 15, 30, 45, 60, 90 min post glucose dose.
Glucose values were entered into an Excel sheet and graphed in GraphPad Prism. The following were calculated from Prism: Change from −30 to 0 Baseline Glucose, Raw Glucose AUC −30 to 90 min, Delta Glucose AUC −30 to 90 min, Raw Glucose AUC 0 to 90 min, Delta Glucose AUC 0 to 90 min.

[1] = biological target: T1, long form of human GPR120 (Homo sapiens, UniProt Q5NUL3); assay: Human GPR120 DiscoveRx PathHunter Beta-Arrestin assay, Procedure β-arrestin A; format: cell-based
T1 construct: host or cells: PathHunter CHO-K1 GPR120 β-Arrestin Cell Line
T1 sequence (Q5NUL3 1-377 isoform Q5NUL3-1): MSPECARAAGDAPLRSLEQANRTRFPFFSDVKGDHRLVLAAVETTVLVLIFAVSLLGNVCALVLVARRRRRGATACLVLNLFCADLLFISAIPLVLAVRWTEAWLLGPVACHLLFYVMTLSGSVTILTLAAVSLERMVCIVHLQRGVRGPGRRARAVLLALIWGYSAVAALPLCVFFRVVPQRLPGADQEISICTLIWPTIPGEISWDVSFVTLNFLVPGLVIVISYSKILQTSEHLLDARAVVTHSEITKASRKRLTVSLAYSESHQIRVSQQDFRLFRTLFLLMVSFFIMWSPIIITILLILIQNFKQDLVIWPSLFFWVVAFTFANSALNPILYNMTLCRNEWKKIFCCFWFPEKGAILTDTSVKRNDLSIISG
T1 sequence (P32121 whole entry partner): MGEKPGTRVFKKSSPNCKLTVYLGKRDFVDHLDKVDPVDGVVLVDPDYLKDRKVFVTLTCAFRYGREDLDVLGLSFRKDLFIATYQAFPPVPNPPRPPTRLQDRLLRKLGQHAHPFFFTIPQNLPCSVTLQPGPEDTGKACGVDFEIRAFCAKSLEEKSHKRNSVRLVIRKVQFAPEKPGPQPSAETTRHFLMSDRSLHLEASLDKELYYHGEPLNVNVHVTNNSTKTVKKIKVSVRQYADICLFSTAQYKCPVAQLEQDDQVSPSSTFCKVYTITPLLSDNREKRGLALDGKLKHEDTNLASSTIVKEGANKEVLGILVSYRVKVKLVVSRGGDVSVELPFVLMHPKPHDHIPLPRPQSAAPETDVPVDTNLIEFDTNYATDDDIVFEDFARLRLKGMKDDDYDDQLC
How it was run: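 PathHunter CHO-K1 cells expressing long-form human GPR120 (3000/well) were seeded overnight. They were then preincubated 60 min in HBSS with 20 mM HEPES and 0.1% BSA, pH 7.4, and exposed to compound for 90 min at 37 °C. β-Arrestin recruitment was read as β-gal complementation luminescence. EC50 came from % activity versus positive control, Hill slope fixed at 1.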

EC50 [1] [nM] | SMILES | C57 IPGTT, Dose Response Results (C57bl/6J Mice; 3 mg/kg) [%] | C57 IPGTT, Dose Response Results (C57bl/6J Mice; 10 mg/kg) [%] | C57 IPGTT, Dose Response Results (C57bl/6J Mice; 30 mg/kg) [%] | C57 IPGTT, Dose Response Results (C57bl/6J Mice; 1 mg/kg) [%]
 | CCc1ccc(C2=C(COc3ccc(CCC(=O)O)c(F)c3F)CCC2)cc1 [Compound 25, 3-(4-((2-(4-ethylphenyl)cyclopent-1-en-1-yl)methoxy)-2,3-difluorophenyl)Propanoic Acid] | 17 | 22 | 39 | 
 | CCc1ccc(C2=C(COc3ccc(CCC(=O)O)c(C)c3C)CCC2)cc1 [Compound 27, 3-(4-((2-(4-ethylphenyl)cyclopent-1-en-1-yl)methoxy)-2,3-dimethylphenyl)Propanoic Acid] | 23 | 37 |  | 15
 | Cc1ccc(C2=C(COc3ccc(CCC(=O)O)c(C)c3C)CCC2)cc1 [Compound 52, 3-[2,3-dimethyl-4-[[2-(p-tolyl)cyclopenten-1-yl]methoxy]phenyl]Propanoic Acid] | 11 | 30 | 92 | 
 | Cc1cc(CCC(=O)O)ccc1OCC1=C(c2ccc(Cl)cc2)CCC1 [Compound 62, 3-[4-[[2-(4-chlorophenyl)cyclopenten-1-yl]methoxy]-3-methyl-phenyl]Propanoic Acid] | 35 | 56 |  | 10
73 | Cc1ccc(C2=C(COc3ccc(CCC(=O)O)c(C)c3C)CCC2)cc1F [Compound 80, 3-(4-((2-(3-fluoro-4-methylphenyl)cyclopent-1-en-1-yl)methoxy)-2,3-dimethylphenyl)Propanoic Acid] | 10 | 55 | 81 | 
 | Cc1ccc(C2=C(COc3ccc(CCC(=O)O)c(C)c3C)CCC2)cn1 [Compound 85, 3-(2,3-dimethyl-4-((2-(6-methylpyridin-3-yl)cyclopent-1-en-1-yl)methoxy)phenyl)Propanoic Acid] | 24 | 19 |  | 13
43 | Cc1c(CCC(=O)O)ccc(OCC2=C(c3ccc(Cl)cc3)CC(F)(F)C2)c1C [Compound 137, 3-[4-[[2-(4-chlorophenyl)-4,4-difluoro-cyclopenten-1-yl]methoxy]-2,3-dimethyl-phenyl]Propanoic Acid] |  |  |  | 
168 | Cc1c(CCC(=O)O)ccc(OCC2=C(c3ccc(Cl)cc3)CCC(F)(F)C2)c1C [Compound 468, 3-[4-[[2-(4-chlorophenyl)-5,5-difluoro-cyclohexen-1-yl]methoxy]-2,3-dimethyl-phenyl]Propanoic Acid] |  |  |  | 
354 | Cc1c(CCC(=O)O)ccc(OCC2=C(c3ccc(Cl)cc3)CCCC2)c1C [Compound 474, 3-[4-[[2-(4-chlorophenyl)cyclohexen-1-yl]methoxy]-2,3-dimethyl-phenyl]Propanoic Acid] |  |  |  | 
 | Cc1cc(CCC(=O)O)ccc1OCC1=C(c2ccc(Cl)cc2)CCCC1 [Compound 483, 3-[4-[[2-(4-chlorophenyl)cyclohexen-1-yl]methoxy]-3-methyl-phenyl]Propanoic Acid] | 33 | 51 |  | 23
